Measurements: patent EP0876142B1, “TOPICAL DELIVERY OF DRUGS TO THE LOWER GASTROINTESTINAL TRACT” (Advanced Polymer Systems, Inc., priority 1996, dated 1997)

Assay: In vitro release of hydrocortisone (modified USP dissolution apparatus)
Format: physicochemical
Conditions: after the first two hours
Experimental: The radioactively labelled hydrocortisone was entrapped in two steps using a 5% ethanolic solution at each step. Release of entrapped hydrocortisone at pH 7.5 was measured using a modified USP dissolution apparatus with a basket of 5 µm mesh and a stirring speed of 150 rpm. Sixty percent of the entrapped hydrocortisone was released in the first two hours with a further 15% released over the next six hours. The dissolution rate of free radioactively labelled hydrocortisone was also measured.

## C[C@]12CCC(=O)C=C1CC[C@@H]1[C@@H]2[C@@H](O)C[C@@]2(C)[C@H]1CC[C@]2(O)C(=O)CO [free hydrocortisone, hydrocortisone]
  total dissolution: total dissolution occurred in another six hours
